From US11591323B2, “Muscarinic agonists as non-steroidal and non-opioid analgesics and methods of use thereof” (Barry University, priority 2019, dated 2023)
Entries after “also recorded” stand apart in the source; their conditions may differ. Read-outs that look alike come from different tables or passages of the source.

How the values were obtained:
[1] = system: striatum (M4 rich); experiment: forskolin-stimulated cAMP in dissipated rat striatum; format: cell-based; conditions: in words
Procedure: Effects of compounds 6A and 7A were then measured ex vivo in dissipated rat tissues (FIG. 5). Accumulation of IPX was measured in dissipated brain cortex (rich in M1 & M3), submaxillary gland (M1 & M3), and ventral tegmental area (M5). Native tissues express about 10-times less muscarinic receptors than CHO cell lines. Accumulation of cAMP was measured in cerebellum (M2) and striatum (M4).
Rat dissipated tissues: Suspension of dissipated tissues from rat brain cortex, cerebellum, striatum, ventral tegmental area (VTA) and submaxillary glands was prepared as described previously in supplementary methods. Adult 8-weeks old male Wistar rats were scarified by cervical dislocation in accordance with current legislative and guidelines under permission of Czech Ministry of Agriculture 16OZ23113/2017-17214. Tissues were dissected immediately. Submaxillary glands were minced by scissors. Tissues were dispersed by incubation for 15 min at 37° C. in KHB supplemented with trypsin and trituration every 5 min. Large undissipated parts were removed by cell mesh. Then dissipated tissues were centrifuged 3 min at 250×g, re-suspended in KHB and centrifuged again to remove trypsin. Suspension of dissipated tissues was used immediately in experiments. Two submaxillary glands or about 400 mg of brain tissue was used a 96-sample assay.
(§1) Measurements of the production of cAMP and inositol phosphates: Levels of second messengers cAMP and inositol phosphates were determined in radiochemical chromatography assays as described previously. To determine level of cAMP, cells in suspension were pre-incubated for 1 h with 0.4 μM [^3H]adenine, washed, and incubated for 10 min in the presence of isobutylmethylxanthine and 10 μM forskolin. […] Incubation was ended by addition of 0.2 ml of 2.5 M HCl to the samples. Samples were applied to alumina columns (1.5 g of alumina per column), washed with 2 ml ammonium acetate (pH=7.0) and eluted from columns with 4 ml ammonium acetate and measured by liquid scintillation spectrometry. […] For this purpose, new CHO cell lines stably expressing promiscuous G15 G-protein and M2 or M4 receptor were generated by transfection with pCMV/hygro vector and hygromycin selection. To determine the rate of formation of inositol phosphates IPX, suspended cells were pre-incubated with 0.1 μM [^3H]myo-inositol for 60 min, washed, and incubated with 10 mM LiCl for 15 min. […] The incubation was stopped by addition of 0.5 ml of chloroform methanol HCl mixture (2:1:0.1). After separation of water and organic phases, 0.6 ml of water phase was applied to Dowex columns (1.5 g of Dowex per column), washed by 20 ml of 60 mM ammonium formate/5 mM sodium borate buffer and eluted from columns with 4 ml of 1M ammonium formate/0.1 formic acid buffer and measured by liquid scintillation spectrometry.
To exclude the possibility that the observed effects of compounds 6A and 7A are the result of overexpression in the heterologous system, functional response to the compounds was measured ex vivo in dissipated native rat tissues. […] Accumulation of IPX was measured in brain cortex, submaxillary gland, and ventral tegmental area (VTA) as brain cortex and submaxillary glands are rich in M1 and in M3 receptors, respectively, and VTA is the only region expressing significant amount of M5 receptors. Accumulation of cAMP was measured in M2-rich cerebellum and M4-rich striatum.

[2] = system: rat aorta smooth muscle cells (mainly M2, lesser M3); experiment: cAMP level in primary culture of rat aorta smooth muscle cells; format: cell-based
Procedure: Effects of compounds 6A and 7A on both cAMP and IPX levels were also measured in primary cultures of rat aorta smooth muscle cells that express mainly M2 and to a lesser extent M3 receptors (FIG. 6). […] Receptor expression levels are far lower in tested native tissues than in transfected cell lines and vary among tissues, being highest in the striatum and lowest in the submaxillary gland. Relative expression levels of G-proteins are also known to vary among tissues and cell lines. Thus, it is great to see that the pharmacological profile of the new compounds is conserved despite these variations.
Cell culture and membrane preparation: Chinese hamster ovary (CHO) cells stably transfected with the genes of individual human variants of muscarinic receptors were purchased from Missouri S&T cDNA Resource Center (Rolla, Mo., USA). Fresh primary cell culture of smooth muscle cells (SMC) from rat aorta prepared as previously described was kindly provided by Dr. Lucie Bačáková. Primary culture of SMCs was grown to confluency in 75 cm^2 flasks in Dulbecco's modified Eagle's medium supplemented with 10% fetal bovine serum. Up to 6-times, 2 million of cells were sub-cultured. Cell cultures and crude membranes from CHO cells were prepared as described previously (Boulos et al., Chem Biol Drug Des 1-12, 2017). Cells were grown to confluency in 75 cm^2 flasks in Dulbecco's modified Eagle's medium supplemented with 10% fetal bovine serum and 2 million of cells were subcultured in 100 mm Petri dishes. Medium was supplemented with 5 mM butyrate for the last 24 hours of cultivation to increase receptor expression. When needed, cells were cultivated with pertussis toxin at a final concentration of 25 ng/ml for the 24 hours. Cells were detached by mild trypsinization on day 5 after subculture. Detached cells were washed twice in 50 ml of phosphate-buffered saline and 3 min centrifugation at 250×g. Washed cells were suspended in 20 ml of ice-cold incubation medium (100 mM NaCl, 20 mM Na-HEPES, 10 mM MgCl2, pH=7.4) supplemented with 10 mM EDTA and homogenized on ice by two 30 sec strokes using Polytron homogenizer (Ultra-Turrax; Janke & Kunkel GmbH & Co. KG, IKA-Labortechnik, Staufen, Germany) with a 30-sec pause between strokes. Cell homogenates were centrifuged for 30 min at 30,000×g. Supernatants were discarded, pellets suspended in fresh incubation medium, incubated on ice for 30 minutes and centrifuged again. Resulting membrane pellets were kept at −80° C. until assayed within 10 weeks at a maximum.
as §1, with “After separation of water and organic phases, 0.6 ml of water phase was applied to Dowex columns (1.5 g of Dowex per column), washed by 20 ml of 60 mM ammonium formate/5 mM sodium borate buffer and eluted from columns with 4 ml of 1M ammonium formate/0.1 formic acid buffer and measured by liquid scintillation spectrometry.” left out

Compound | Emax of inhibition of cAMP synthesis [1] | forskolin-stimulated cAMP level [1] | Maximal inhibition of cAMP synthesis [2] | Maximal inhibition of cAMP synthesis ([2]; in words) | cAMP level ([2]; in words)
C1=CCN(Cc2cccs2)CC1.Cl [Compound 6A, 1-[(thiophen-2-yl)methyl]-1,2,3,6-tetrahydropyridin-1-ium chloride] | comparable to inhibition by carbachol | only a decrease in cAMP level | about 40% | the same as inhibition by carbachol | only inhibited cAMP synthesis
C[N+]1(Cc2cccs2)CC=CCC1.[I-] (stereo not shown) [Compound 7A, 1-methyl-1-[(thiophen-2-yl)methyl]-1,2,3,6-tetrahydropyridin-1-ium iodide] | comparable to inhibition by carbachol | only a decrease in cAMP level | about 40% | the same as inhibition by carbachol | only inhibited cAMP synthesis
C[N+](C)(C)CCOC(N)=O [carbachol, reference compound] |  | transient decrease in forskolin-stimulated cAMP level at nanomolar concentrations followed by an increase at micromolar concentrations; also recorded: transient decrease in forskolin-stimulated cAMP level at sub-micromolar concentrations followed by an increase at micromolar concentrations | about 40% |  | transient decrease in cAMP level
